Experimental data as given in patent publication US6620833B1, “Substituted benzimidazoles, production and use thereof as agents for combating parasitic protozoas” (Bayer Aktiengesellschaft, priority 1998, dated 2003).

Columns and labels:
Type in all cases: in vivo
[1] = test system: Eimeria acervulina, Eimeria maxima and Eimeria tenella; assay: Cage experiment on coccidiosis/chicks, mixed experimental infection; conditions: for dropping scores / lesion score: assessment 0 to 6; for mortality n: dead animals/animals employed
Description: 8 to 12 day-old male chicks (e.g. LSL Brinkschulte/Senden) which have been reared coccidia-free receive the compounds according to the invention (test substances) in the concentration indicated in ppm with the feed from 3 days before (day −3) infection (=a.i.) until 8 (9) days after infection (=p.i.). 3 animals are kept in each cage. One or more groups of this type are employed per dose. Infection is carried out by means of a stomach tube directly into the crop with approximately 100,000 sporulated oocysts of Eimeria acervulina and with approximately 30,000 oocysts each of E. maxima and 40,000 sporulated oocysts of E. tenella. These are highly virulent strains. The exact infection dose is adjusted so that, if possible, one of three experimentally infected untreated chicks dies due to the infection. For assessment of the efficacy, the following criteria are taken into account: weight increase from the start of the experiment to the end of the experiment, death rate due to infection, macroscopic assessment of the faeces with respect to diarrhoea and excretion of blood on days 5 and 7 p.i. (assessment 0 to 6), macroscopic assessment of the intestinal mucosa, in particular of the appendices (assessment 0 to 6) and the oocyst excretion as well as the proportion (in %) of the oocysts sporulating in the course of 24 hours. The number of oocysts in the faeces was determined with the aid of a McMaster counting chamber (see Engelbrecht and coworkers “Parasitologische Arbeitsmethoden in Medizin and Veterinärmedizin” [Parasitological Working Methods in Medicine and Veterinary Medicine], Akademie-Verlag, Berlin (1965)). The individual findings are related to the untreated non-infected control groups and a total score is calculated (cf. A. Haberkorn (1986), pp. 263 to 270 in Research in Avian Coccidiosis ed L. R. McDougald, L. P. Joyner, P. L. Long, Proceedings of the Georgia Coccidiosis Conference, Nov. 18-20, 1985. Athens/Georgia USA).
In the column “ppm”, the concentration of the active compound employed in the feed is indicated in ppm.
In the column “mortality” the percentage of the dead animals is indicated under % and the number of dead animals/animals employed in the experiment is indicated under n.
In the column “weight % of not inf. control” the ratio of the weight of the treated animals to the weight of the non-infected control group is indicated.
In the columns “dropping scores”, “lesion score” and “oocyst control”, individual details of the action are given.
In the column “% efficacy”, the total score is assessed; 0% means no action, 100% means full action.

[2] = test system: Eimeria acervulina; assay: Cage experiment on coccidiosis/chicks, E. acervulina readout; conditions: for Efficacy against Eimeria acervulina: first symbol of cell; as to Efficacy against Eimeria acervulina: key: 2=full action; 1=slight action; 0=inactive; D=death
[3] = test system: Eimeria maxima; assay: Cage experiment on coccidiosis/chicks, E. maxima readout; conditions: for Efficacy against Eimeria maxima: second symbol of cell; as to Efficacy against Eimeria maxima: key: 2=full action; 1=slight action; 0=inactive; D=death
[4] = test system: Eimeria tenella; assay: Cage experiment on coccidiosis/chicks, E. tenella readout; conditions: for Efficacy against Eimeria tenella: third symbol of cell; as to Efficacy against Eimeria tenella: key: 2=full action; 1=slight action; 0=inactive; D=death

CCN(Cn1c(C(F)(F)F)nc2c(Br)cc3c(c21)OC(F)(F)C(F)(F)O3)C(=O)OC [Ex. 1]
% efficacy tot. ([1]; Table 1, 7.5 ppm in feed): 65%
mortality % ([1]; Table 1, 7.5 ppm in feed): 0%
oocyst in % of inf. control tot. ([1]; Table 1, 7.5 ppm in feed): 1.3%
weight % of not inf. control ([1]; Table 1, 7.5 ppm in feed): 76%
dropping scores ([1]; Table 1, 7.5 ppm in feed): 6
lesion score ([1]; Table 1, 7.5 ppm in feed): 5.3
mortality n ([1]; Table 1, 7.5 ppm in feed): 0/3
% efficacy tot. ([1]; Table 1, 10 ppm in feed): 75%
mortality % ([1]; Table 1, 10 ppm in feed): 0%
oocyst in % of inf. control tot. ([1]; Table 1, 10 ppm in feed): 0%
weight % of not inf. control ([1]; Table 1, 10 ppm in feed): 84%
dropping scores ([1]; Table 1, 10 ppm in feed): 6
lesion score ([1]; Table 1, 10 ppm in feed): 3.3
mortality n ([1]; Table 1, 10 ppm in feed): 0/3
% efficacy tot. ([1]; Table 2, 1 ppm in feed): 36%
mortality % ([1]; Table 2, 1 ppm in feed): 33%
oocyst in % of inf. control tot. ([1]; Table 2, 1 ppm in feed): 82%
weight % of not inf. control ([1]; Table 2, 1 ppm in feed): 31%
dropping scores ([1]; Table 2, 1 ppm in feed): 6
lesion score ([1]; Table 2, 1 ppm in feed): 6
mortality n ([1]; Table 2, 1 ppm in feed): 1/3
% efficacy tot. ([1]; Table 2, 2.5 ppm in feed): 36%
mortality % ([1]; Table 2, 2.5 ppm in feed): 33%
oocyst in % of inf. control tot. ([1]; Table 2, 2.5 ppm in feed): 58%
weight % of not inf. control ([1]; Table 2, 2.5 ppm in feed): 42%
dropping scores ([1]; Table 2, 2.5 ppm in feed): 4-6
lesion score ([1]; Table 2, 2.5 ppm in feed): 6
mortality n ([1]; Table 2, 2.5 ppm in feed): 1/3
% efficacy tot. ([1]; Table 2, 5 ppm in feed): 90%
mortality % ([1]; Table 2, 5 ppm in feed): 0%
oocyst in % of inf. control tot. ([1]; Table 2, 5 ppm in feed): 37%
weight % of not inf. control ([1]; Table 2, 5 ppm in feed): 110%
dropping scores ([1]; Table 2, 5 ppm in feed): 1
lesion score ([1]; Table 2, 5 ppm in feed): 0
mortality n ([1]; Table 2, 5 ppm in feed): 0/3
% efficacy tot. ([1]; Table 3, 5 ppm in feed): 45%
mortality % ([1]; Table 3, 5 ppm in feed): 0%
oocyst in % of inf. control tot. ([1]; Table 3, 5 ppm in feed): 12%
weight % of not inf. control ([1]; Table 3, 5 ppm in feed): 72%
dropping scores ([1]; Table 3, 5 ppm in feed): 6
lesion score ([1]; Table 3, 5 ppm in feed): 6
mortality n ([1]; Table 3, 5 ppm in feed): 0/3
% efficacy tot. ([1]; Table 3, 7.5 ppm in feed): 65%
mortality % ([1]; Table 3, 7.5 ppm in feed): 0%
oocyst in % of inf. control tot. ([1]; Table 3, 7.5 ppm in feed): 1.3%
weight % of not inf. control ([1]; Table 3, 7.5 ppm in feed): 76%
dropping scores ([1]; Table 3, 7.5 ppm in feed): 6
lesion score ([1]; Table 3, 7.5 ppm in feed): 5.3
mortality n ([1]; Table 3, 7.5 ppm in feed): 0/3
% efficacy tot. ([1]; Table 3, 10 ppm in feed): 75%
mortality % ([1]; Table 3, 10 ppm in feed): 0%
oocyst in % of inf. control tot. ([1]; Table 3, 10 ppm in feed): 0%
weight % of not inf. control ([1]; Table 3, 10 ppm in feed): 84%
dropping scores ([1]; Table 3, 10 ppm in feed): 6
lesion score ([1]; Table 3, 10 ppm in feed): 3.3
mortality n ([1]; Table 3, 10 ppm in feed): 0/3
oocyst in % of inf. control ac. ([2]; Table 1, 7.5 ppm in feed): 3%
oocyst in % of inf. control ac. ([2]; Table 1, 10 ppm in feed): 0%
oocyst in % of inf. control ac. ([2]; Table 2, 1 ppm in feed): 49%
oocyst in % of inf. control ac. ([2]; Table 2, 2.5 ppm in feed): 19%
oocyst in % of inf. control ac. ([2]; Table 2, 5 ppm in feed): 1%
oocyst in % of inf. control ac. ([2]; Table 3, 5 ppm in feed): 6%
oocyst in % of inf. control ac. ([2]; Table 3, 7.5 ppm in feed): 3%
oocyst in % of inf. control ac. ([2]; Table 3, 10 ppm in feed): 0%
Efficacy against Eimeria acervulina ([2]; Table 4, dose 2.5 ppm): 1
Efficacy against Eimeria acervulina ([2]; Table 4, dose 5 ppm): 2
Efficacy against Eimeria acervulina ([2]; Table 4, dose 10 ppm): 2
oocyst in % of inf. control max. ([3]; Table 1, 7.5 ppm in feed): 0%
oocyst in % of inf. control max. ([3]; Table 1, 10 ppm in feed): 0%
oocyst in % of inf. control max. ([3]; Table 2, 1 ppm in feed): 100%
oocyst in % of inf. control max. ([3]; Table 2, 2.5 ppm in feed): 100%
oocyst in % of inf. control max. ([3]; Table 2, 5 ppm in feed): 100%
oocyst in % of inf. control max. ([3]; Table 3, 5 ppm in feed): 0%
oocyst in % of inf. control max. ([3]; Table 3, 7.5 ppm in feed): 0%
oocyst in % of inf. control max. ([3]; Table 3, 10 ppm in feed): 0%
Efficacy against Eimeria maxima ([3]; Table 4, dose 2.5 ppm): 1
Efficacy against Eimeria maxima ([3]; Table 4, dose 5 ppm): 2
Efficacy against Eimeria maxima ([3]; Table 4, dose 10 ppm): 2
oocyst in % of inf. control ten. ([4]; Table 1, 7.5 ppm in feed): 1%
oocyst in % of inf. control ten. ([4]; Table 1, 10 ppm in feed): 1%
oocyst in % of inf. control ten. ([4]; Table 2, 1 ppm in feed): 97%
oocyst in % of inf. control ten. ([4]; Table 2, 2.5 ppm in feed): 55%
oocyst in % of inf. control ten. ([4]; Table 2, 5 ppm in feed): 11%
oocyst in % of inf. control ten. ([4]; Table 3, 5 ppm in feed): 30%
oocyst in % of inf. control ten. ([4]; Table 3, 7.5 ppm in feed): 1%
oocyst in % of inf. control ten. ([4]; Table 3, 10 ppm in feed): 1%
Efficacy against Eimeria tenella ([4]; Table 4, dose 2.5 ppm): 1
Efficacy against Eimeria tenella ([4]; Table 4, dose 5 ppm): 2
Efficacy against Eimeria tenella ([4]; Table 4, dose 10 ppm): 2
